Assays:
[1] = Sensory studies of coolant activity (G-180 and neoisomer vs menthol); assay type: in vivo, human; details: for burning sensation: sensory evaluations by panelists
Description: The coolant properties of the materials prepared according to the present methods are evaluated using sensory studies. […] By contrast, both the G-180 and neoisomer materials provided a sensation that lasted longer than about 15 minutes. The cooling potency of the neoisomer is particularly unexpected, since stereochemistry is a major factor influencing coolant activity and potency for menthol and menthol derivatives as reported in previous studies. [See for example, R. Emberger and R. Hopp (1987), Specialty Chemicals, 7(3), 193-201; R. Eccles (1990), Chemical Senses, 2, 275-291; S. Rovner (2007), Chemical & Engineering News, 85(39), 95-98]. […] The effect on activity of these isomers is far more significant than is observed with menthol.
Sensory evaluation studies of coolant activity may be conducted using a methodology patterned after the techniques described in M. C. Meilgaard, et al., Sensory Evaluation Techniques, 4th Ed. (2007). A panel of trained sensory experts evaluates cooling sensation experienced after using a product with coolant, for example by brushing with a dentifrice or rinsing with an aqueous rinse. In one protocol, panelists brush teeth with 1.5 grams of a test dentifrice (containing coolant) or control (no coolant) and then expectorate. After brush expectoration, panelists evaluate cooling intensity, assigning a number between 0 (no cooling) to 60 (intense cooling). In a rinse protocol, panelists rinse mouth with 15 ml. of an aqueous rinse and expectorate. After rinse expectoration, panelists evaluate cooling intensity according to the same 0 to 60 scale. Evaluations are conducted various time points, for example, at 5, 15, 30, 45, 60 minute, etc. At each evaluation, panelists are instructed to breathe in through pursed lips and evaluate overall cooling sensation. In this test, a numerical score of 7.5 indicates meaningful or definite cooling.

[2] = concentration where the cooling effect could be clearly recognized; cited from earlier work
[3] = Cooling rating of test dentifrices relative to control dentifrice, panelists n=9; assay type: in vivo, human; details: for Cooling Rating Relative to Control: control = 60 on 1-90 scale; for cooling power compared to l-menthyl lactate: in words, dentifrice panel test, 60 minute period
Description: The neo-coolants synthesized according to the routes outlined herein were tested to rate their cooling power compared with the corresponding l-isomers (commercially available samples) using the following protocol. Control and test coolants were formulated into a dentifrice at various levels according to the following formula.
Panelists (n=9) were instructed to brush for 30 seconds with a control dentifrice (containing a mixture of coolants 1500 ppm l-WS-3, 3000 ppm Menthol, 3000 ppm MGA and 1000 ppm WS-23), expectorate, and assign the control dentifrice a cooling rating of 60 on a 1-90 scale. The panelists were then given the test dentifrices in random order and instructed to brush and rate each sample relative to the control over a 60-minute period. Cooling ratings relative to control are summarized below.

[4] = 0 min, 500 ppm coolant in dentifrice
[5] = 15 min, 500 ppm coolant in dentifrice
[6] = 30 min, 500 ppm coolant in dentifrice
[7] = 45 min, 500 ppm coolant in dentifrice
[8] = 60 min, 500 ppm coolant in dentifrice
[9] = 0 min, 1500 ppm coolant in dentifrice
[10] = 15 min, 1500 ppm coolant in dentifrice
[11] = 30 min, 1500 ppm coolant in dentifrice
[12] = 45 min, 1500 ppm coolant in dentifrice
[13] = 60 min, 1500 ppm coolant in dentifrice

CC(C)[C@@H]1CC[C@@H](C)C[C@H]1C(=O)Nc1ccc(CC#N)cc1 [G-180, N-[4-(cyanomethyl)phenyl]-(1R,2S,5R)-2-isopropyl-5-methylcyclohexanecarboxamide, reference compound]
burning sensation [1]: “burning” sensation especially when used at fairly high levels

CC(C)[C@@H]1CC[C@@H](C)C[C@H]1O [L-menthol, l-menthol, reference compound]
course of cooling sensation after use ([1]; sensory studies): drops sharply within a few minutes after use
cooling threshold [2]: about 800 ppb

CC(C)[C@@H]1CC[C@@H](C)C[C@@H]1C(=O)Nc1ccc(CC#N)cc1 [Neo-G-180, N-[4-(cyanomethyl)phenyl]-(1S,2S,5R)-2-isopropyl-5-methylcyclohexanecarboxamide]
cooling properties ([1]; in vivo): excellent cooling properties
burning sensation [1]: significantly less of the “burning” sensation
melting point: 167 to 169 °C

CC1CCC(C(C)C)C(OC(=O)C(C)O)C1 [Neo-Menthyl lactate (2S)]
Cooling Rating Relative to Control [3, 4]: 62.2
Cooling Rating Relative to Control [3, 5]: 43.9
Cooling Rating Relative to Control [3, 6]: 33.9
Cooling Rating Relative to Control [3, 7]: 27.5
Cooling Rating Relative to Control [3, 8]: 16.7
cooling power compared to l-menthyl lactate [3]: very strong initial cooling as well as over the 60 minute time period

CC(=O)O[C@@H](C)C(=O)O[C@H]1C[C@H](C)CC[C@H]1C(C)C [Neo-Menthyl lactate acetate (2S), (1S,2S,5R)-2-isopropyl-5-methylcyclohexyl-2(S)-acetoxypropanoate]
Cooling Rating Relative to Control ([3]; 0 min, 335 ppm coolant in dentifrice): 64.4
Cooling Rating Relative to Control ([3]; 15 min, 335 ppm coolant in dentifrice): 46.3
Cooling Rating Relative to Control ([3]; 30 min, 335 ppm coolant in dentifrice): 33.1
Cooling Rating Relative to Control ([3]; 45 min, 335 ppm coolant in dentifrice): 26.3
Cooling Rating Relative to Control ([3]; 60 min, 335 ppm coolant in dentifrice): 21.3
cooling power compared to l-menthyl lactate [3]: very strong initial cooling as well as over the 60 minute time period

CC(=O)C(=O)OC1CC(C)CCC1C(C)C (stereo not shown) [Neo-Menthyl pyruvate]
Cooling Rating Relative to Control ([3]; 0 min, 1000 ppm coolant in dentifrice): 57.8
Cooling Rating Relative to Control ([3]; 15 min, 1000 ppm coolant in dentifrice): 45.0
Cooling Rating Relative to Control ([3]; 30 min, 1000 ppm coolant in dentifrice): 30.6
Cooling Rating Relative to Control ([3]; 45 min, 1000 ppm coolant in dentifrice): 21.1
Cooling Rating Relative to Control ([3]; 60 min, 1000 ppm coolant in dentifrice): 16.1

CCNC(=O)[C@H]1C[C@H](C)CC[C@H]1C(C)C [Neo-WS-3]
Cooling Rating Relative to Control [3, 9]: 43.3
Cooling Rating Relative to Control [3, 10]: 33.9
Cooling Rating Relative to Control [3, 11]: 23.3
Cooling Rating Relative to Control [3, 12]: 16.7
Cooling Rating Relative to Control [3, 13]: 13.3

CCOC(=O)CNC(=O)[C@H]1C[C@H](C)CC[C@H]1C(C)C [NeoWS-5]
Cooling Rating Relative to Control [3, 9]: 61.9
Cooling Rating Relative to Control [3, 10]: 39.3
Cooling Rating Relative to Control [3, 11]: 29.3
Cooling Rating Relative to Control [3, 12]: 21.4
Cooling Rating Relative to Control [3, 13]: 15.7

CC(C)[C@@H]1CC[C@@H](C)C[C@@H]1O [d-neomenthol]
cooling threshold [2]: about 25,000 ppb

CC(C)[C@@H]1CC[C@@H](C)C[C@H]1OC(=O)[C@H](C)O [l-Menthyl lactate (2S), reference compound]
Cooling Rating Relative to Control [3, 4]: 50.0
Cooling Rating Relative to Control [3, 5]: 38.0
Cooling Rating Relative to Control [3, 6]: 26.5
Cooling Rating Relative to Control [3, 7]: 18.5
Cooling Rating Relative to Control [3, 8]: 13.5

CCNC(=O)C1CC(C)CCC1C(C)C (stereo not drawn) [l-WS-3, N-ethyl-ρ-menthan-3-carboxamide, reference compound]
Cooling Rating Relative to Control [3, 9]: 53.5
Cooling Rating Relative to Control [3, 10]: 36.5
Cooling Rating Relative to Control [3, 11]: 27.0
Cooling Rating Relative to Control [3, 12]: 20.5
Cooling Rating Relative to Control [3, 13]: 15.5

CCOC(=O)CNC(=O)C1CC(C)CCC1C(C)C (stereo not drawn) [l-WS-5, N-ethoxycarbonylmethyl-ρ-menthan-3-carboxamide, reference compound]
Cooling Rating Relative to Control [3, 9]: 53.9
Cooling Rating Relative to Control [3, 10]: 40.0
Cooling Rating Relative to Control [3, 11]: 26.7
Cooling Rating Relative to Control [3, 12]: 17.8
Cooling Rating Relative to Control [3, 13]: 13.3

CC(C)[C@H]1CC[C@H](C)C[C@H]1O [l-neomenthol]
cooling threshold [2]: about 3,000 ppb

Neo-Menthyl lactate [Neo-Menthyl lactate (~2:1 S:R)]
Cooling Rating Relative to Control ([3]; 0 min, 1950 ppm coolant in dentifrice): 50.6
Cooling Rating Relative to Control ([3]; 15 min, 1950 ppm coolant in dentifrice): 42.8
Cooling Rating Relative to Control ([3]; 30 min, 1950 ppm coolant in dentifrice): 30.6
Cooling Rating Relative to Control ([3]; 45 min, 1950 ppm coolant in dentifrice): 22.2
Cooling Rating Relative to Control ([3]; 60 min, 1950 ppm coolant in dentifrice): 16.7

Reference: US8754259B2, “Synthesis of cyclohexane derivatives useful as sensates in consumer products” (The Proctor & Gamble Company, priority 2008, dated 2014)
